Test system: Balb/C mice
Experiment: Model of lung eosinophilia in mice (ovalbumin sensitization and provocation)
Assay type: in vivo
Settings: i.n. 2 mg/kg daily from 2 days prior to the provocative test until the end, lavage 48 hours after ovalbumin provocation
Method: Model of Lung Eosinophilia in Mice
Male Balb/C mice (Charles River) of 20-25 g of body weight were randomly divided into groups. They were sensitized by i.p. application of ovalbumin (Sigma) on days zero and fourteen. On day twenty the mice were subjected to a provocative test by i.n. application of ovalbumin (positive control and test groups) or PBS (negative control). After 48 hours the animals were anesthetized and the lungs were rinsed with 1 mL of PBS. The cells were centrifuged on Cytospin 3 cytocentrifuge (Shandon). Then the cells were stained with Diff-Quick (Dade) and the percentage of eosinophils was determined by differential counting of at least 100 cells.
Beclomethazone was used as a standard substance in addition to positive and negative controls. The compound was applied daily i.n. in a dose of 2 mg/kg for 2 days prior to the provocative test and until the end of the investigation.
The compound 13 reduced the number of eosinophils in the lavage and histological preparations of lungs for 50% in relation to the positive control group.

For `O=c1oc2cc(O)cc(O)c2c(O)c1-c1cc2c(=O)oc3cc(O)cc(O)c3c2o1` [Compound 13, 7,9-Dihydroxy-2-(4,5,7-trihydroxy-2-oxo-2H-chromene-3-yl)-4H-furo[3,2-c]chromene-4-one], the “reduction of the number of eosinophils in the lavage and histological preparations of lungs in relation to the positive control group” value was 50%.

Source: patent publication US7384975B2, “Substituted furochromenes, preparation thereof and their antiinflammatory action” (GlaxoSmithKline Istrazivacki Centar Zagreb d.o.o., priority 2003, dated 2008)
